Measured values as given in US7361676B2, “Solid preparation containing single crystal form” (Teijin Limited, priority 2002, dated 2008).
Each block holds one compound with its values, some of them ahead of it.

What was measured:
[1] = Intrinsic dissolution rate (USP 24 <1087>); type: physicochemical; conditions: pellets, second fluid of the disintegration test of Japanese Pharmacopoeia, 50 rpm
Protocol: The dissolution rate was measured according to USP 24, <1087>Intrinsic Dissolution. Specifically, the measurement was carried out as follows:
50 mg each of crystals powdered lightly in an agate mortar was set between plates, and a pressure of 754 kgf/cm^2 was applied thereto for one minute to produce pellets. As the testing solution, 900 mL of the second fluid of the disintegration test of Japanese Pharmacopoeia was used and the test was carried out at 50 rpm using the dissolution apparatus produced by Vankel. Subsequently, the testing liquid was filtered through a filter and the resultant, used as the sample solution, was tested with respect to a standard solution by a spectrophotometry (wavelength of 317 nm). The results are shown in Table 2, in which the order of the dissolution rate of the six crystals is as follows: E>A>B>D>G>C.

[2] = Physical stability of drug substance crystals at 40° C./75% RH (HPLC degradant, XRD/TG transformation); type: physicochemical; conditions: for Transformation of crystal form on storage: 40° C./75% RH, storage for three months
Protocol: Each of the drug substances (crystals A, B, C, D, E and G) of 2-(3-cyano-4-isobutyloxyphenyl)-4-methyl-5-thiazolecarboxylic acid was tested in bottles with and without closure under the conditions of 40° C./75% RH. Any degradant was detected by a HPLC. Their transformation was detected by an X-ray powder diffraction pattern and by a thermal mass measurement method, and the 50% transform time was determined. There was no degradant for all of the six crystal forms.
For the above HPLC, Model 2690 produced by Waters was adopted, using an ODS column with a measured wave length of 217 nm at a predetermined temperature around 40° C.
For the above X-ray powder diffraction, Model XRD-6000 of Shimadzu Corp. was used.
For the above heat mass measurement, Model TGA7, Pyris1 produced by Perkin Elmer was used at a temperature rising speed of 40° C./min.

[3] = as described in WO99/65885; cited from earlier work
[4] = Pulverized particle size by image analysis; type: physicochemical
Protocol: Plain tablets were prepared by the method same as that of Example 1 except that particles (Particles 1˜4) shown in Table 7, with crystal A and with four different kinds of average particle sizes, were used as 2-(3-cyano-4-isobutyloxyphenyl)-4-methyl-5-thiazolecarboxylic acid. The obtained plain tablets were coated with coating liquid comprising purified water, polyethylene glycol and hydroxypropylmethyl cellulose by a coating machine (High Coater HCT-30, Freund Ind.).

[5] = biological target: xanthine oxidase (Homo sapiens, UniProt P47989); conditions: as described in WO92/09279; cited from earlier work
[6] = 40° C./75% RH with closure, analysis XRD or TG
[7] = 40° C./75% RH without closure, analysis XRD or TG

Sequence of xanthine oxidase (P47989 whole entry, species assumed): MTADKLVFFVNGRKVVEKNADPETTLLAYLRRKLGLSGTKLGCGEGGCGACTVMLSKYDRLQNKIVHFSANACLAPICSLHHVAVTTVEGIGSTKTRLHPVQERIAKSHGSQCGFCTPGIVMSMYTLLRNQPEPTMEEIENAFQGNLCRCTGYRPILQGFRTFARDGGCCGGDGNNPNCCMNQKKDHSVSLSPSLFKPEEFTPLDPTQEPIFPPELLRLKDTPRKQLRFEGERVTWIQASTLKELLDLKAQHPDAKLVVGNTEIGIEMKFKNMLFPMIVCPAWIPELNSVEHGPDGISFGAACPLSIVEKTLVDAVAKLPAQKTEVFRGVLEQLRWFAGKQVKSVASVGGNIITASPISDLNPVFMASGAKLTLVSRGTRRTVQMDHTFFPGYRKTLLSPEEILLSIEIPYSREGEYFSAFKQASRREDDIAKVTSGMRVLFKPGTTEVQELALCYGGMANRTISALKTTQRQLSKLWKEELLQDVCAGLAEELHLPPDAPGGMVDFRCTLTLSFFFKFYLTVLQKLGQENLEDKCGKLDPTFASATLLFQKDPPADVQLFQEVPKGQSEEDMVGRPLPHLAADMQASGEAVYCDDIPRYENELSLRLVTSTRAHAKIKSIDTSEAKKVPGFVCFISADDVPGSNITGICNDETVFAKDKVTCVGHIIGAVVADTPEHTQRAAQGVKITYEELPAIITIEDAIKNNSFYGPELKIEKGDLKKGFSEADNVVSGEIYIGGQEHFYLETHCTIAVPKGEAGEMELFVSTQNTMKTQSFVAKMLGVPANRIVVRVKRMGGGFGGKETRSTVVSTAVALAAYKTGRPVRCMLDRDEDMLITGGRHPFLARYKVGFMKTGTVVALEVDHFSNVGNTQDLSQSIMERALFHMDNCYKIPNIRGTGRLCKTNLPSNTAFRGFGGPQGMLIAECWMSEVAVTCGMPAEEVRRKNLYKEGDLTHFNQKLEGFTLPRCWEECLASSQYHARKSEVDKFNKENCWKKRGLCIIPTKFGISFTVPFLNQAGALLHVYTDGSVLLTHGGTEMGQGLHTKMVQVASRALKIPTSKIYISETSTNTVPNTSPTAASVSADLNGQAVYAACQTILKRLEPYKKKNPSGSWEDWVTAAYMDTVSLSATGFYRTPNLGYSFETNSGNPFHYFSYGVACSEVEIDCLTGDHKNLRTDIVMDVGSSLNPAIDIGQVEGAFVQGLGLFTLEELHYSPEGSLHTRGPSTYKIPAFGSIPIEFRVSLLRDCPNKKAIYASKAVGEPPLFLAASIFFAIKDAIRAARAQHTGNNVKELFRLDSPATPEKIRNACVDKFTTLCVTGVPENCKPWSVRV

Pulverized particle size, 95% cumulative diameter [4]: 5.6 μm | Pulverized particle size, average particle diameter [4]: 3.5 μm
SMILES: Cc1nc(-c2ccc(OCC(C)C)c(C#N)c2)sc1C(=O)O [Particle 1, 2-(3-cyano-4-isobutyloxyphenyl)-4-methyl-5-thiazolecarboxylic acid]

Intrinsic rate [1]: 0.1242 mg/cm^2/min | 50% Transform time [2, 6]: 5 days | 50% Transform time [2, 7]: 0.583 days
SMILES: Cc1nc(-c2ccc(OCC(C)C)c(C#N)c2)sc1C(=O)O [Crystal B, 2-(3-cyano-4-isobutyloxyphenyl)-4-methyl-5-thiazolecarboxylic acid]
Transformation of crystal form on storage [2]: transformation of crystals B, D and E was detected

Intrinsic rate [1]: 0.1092 mg/cm^2/min | 50% Transform time [2, 6]: 17 days | 50% Transform time [2, 7]: 0.0104 days
SMILES: Cc1nc(-c2ccc(OCC(C)C)c(C#N)c2)sc1C(=O)O [Crystal D, 2-(3-cyano-4-isobutyloxyphenyl)-4-methyl-5-thiazolecarboxylic acid]
Transformation of crystal form on storage [2]: transformation of crystals B, D and E was detected

Further lines, the compound ahead of its results:

SMILES: Cc1nc(-c2ccc(OCC(C)C)c(C#N)c2)sc1C(=O)O [Crystal G, 2-(3-cyano-4-isobutyloxyphenyl)-4-methyl-5-thiazolecarboxylic acid]
Intrinsic rate [1]: 0.0967 mg/cm^2/min | 50% Transform time [2, 6]: (Not changed) | 50% Transform time [2, 7]: (Not changed) | Transformation of crystal form on storage [2]: stable | Retention of a crystal form in long term storage [3]: useful in view of retention of a crystal form in long term storage

SMILES: Cc1nc(-c2ccc(OCC(C)C)c(C#N)c2)sc1C(=O)O [Crystal A, 2-(3-cyano-4-isobutyloxyphenyl)-4-methyl-5-thiazolecarboxylic acid]
Intrinsic rate [1]: 0.1434 mg/cm^2/min | 50% Transform time [2, 6]: (Not changed) | 50% Transform time [2, 7]: (Not changed) | Transformation of crystal form on storage [2]: stable | Retention of a crystal form in long term storage [3]: useful in view of retention of a crystal form in long term storage

SMILES: Cc1nc(-c2ccc(OCC(C)C)c(C#N)c2)sc1C(=O)O [Particle 2, 2-(3-cyano-4-isobutyloxyphenyl)-4-methyl-5-thiazolecarboxylic acid]
Pulverized particle size, 95% cumulative diameter [4]: 29.5 μm | Pulverized particle size, average particle diameter [4]: 12.9 μm

SMILES: Cc1nc(-c2ccc(OCC(C)C)c(C#N)c2)sc1C(=O)O [Crystal E, 2-(3-cyano-4-isobutyloxyphenyl)-4-methyl-5-thiazolecarboxylic acid]
Intrinsic rate [1]: 0.1874 mg/cm^2/min | 50% Transform time [2, 6]: 55 days | 50% Transform time ([2]; 40° C./75% RH without closure, analysis XRD): 19 days | Transformation of crystal form on storage [2]: transformation of crystals B, D and E was detected

SMILES: Cc1nc(-c2ccc(OCC(C)C)c(C#N)c2)sc1C(=O)O [Crystal C, 2-(3-cyano-4-isobutyloxyphenyl)-4-methyl-5-thiazolecarboxylic acid]
Intrinsic rate [1]: 0.0694 mg/cm^2/min | 50% Transform time [2, 6]: (Not changed) | 50% Transform time [2, 7]: (Not changed) | Transformation of crystal form on storage [2]: stable | Retention of a crystal form in long term storage [3]: useful in view of retention of a crystal form in long term storage

SMILES: Cc1nc(-c2ccc(OCC(C)C)c(C#N)c2)sc1C(=O)O [Particle 3, 2-(3-cyano-4-isobutyloxyphenyl)-4-methyl-5-thiazolecarboxylic acid]
Pulverized particle size, 95% cumulative diameter [4]: 74.7 μm | Pulverized particle size, average particle diameter [4]: 26.2 μm

SMILES: Cc1nc(-c2ccc(OCC(C)C)c(C#N)c2)sc1C(=O)O [Particle 4, 2-(3-cyano-4-isobutyloxyphenyl)-4-methyl-5-thiazolecarboxylic acid]
Pulverized particle size, 95% cumulative diameter [4]: 140.8 μm | Pulverized particle size, average particle diameter [4]: 48.6 μm

SMILES: Cc1nc(-c2ccc(OCC(C)C)c(C#N)c2)sc1C(=O)O [2-(3-cyano-4-isobutyloxyphenyl)-4-methyl-5-thiazolecarboxylic acid]
Activity for inhibiting xanthine oxidase [5]: strong activity
